Test results reported in patent US12433836B2, “Parenterally administered immune enhancing drugs” (ARCUS BIOSCIENCES, INC., priority 2018, dated 2025).
Read-outs that look alike come from different tables or passages of the source. Each block holds one compound with its values, some of them ahead of it.

Assays:
bladder cancer = settings: cited from earlier work
[1] = Pharmacokinetics after single IV bolus dose in rats
Method: (§1) At the designated time points, blood was collected into tubes containing potassium EDTA and stored on ice until processed by centrifugation. The resultant plasma was stored in a freezer maintained at approximately −80° C.
(§2) Plasma samples were prepared by protein precipitation. An aliquot of 30 to 50 μL sample was mixed with acetonitrile containing an internal standard. The mixture was vortexed and then centrifuged. The resultant supernatant was directly analyzed by a sensitive and specific analytical procedure. Analytes were separated by liquid chromatography (LC), and detected by tandem mass spectrometry (MS/MS). The lower limit of quantitation (LLOQ) was 1.0 to 5.0 ng/mL.

[2] = Pharmacokinetics after single IV bolus dose in dogs; settings: for CL: Dog, single dose IV bolus, mean noncompartmental; for volume of distribution at steady state, in words: dogs, single IV dose; for Vd / half-life: male, beagle, dog, iv
Method: as §1, §2

[3] = Pharmacokinetics in preclinical species, summary across species; assay type: in vivo, mice, rats, dogs, monkeys; settings: single IV dose; for clearance (CL), in words: all preclinical species; for half-life: both sexes, CD-1 (mouse), Sprague-Dawley (rat), beagle (dog), mouse, rat, dog, cynomolgus monkey, plasma, range over preclinical species, read-out: terminal half-lives; for volume of distribution at steady state, in words: mice, rats and monkeys
Method: Plasma samples were prepared by protein precipitation. […] The mixture was vortexed and then centrifuged.
Compound 1 and Compound 2 volume of distribution at steady (Vu) was low in mice, rats and monkeys, but moderate-to-high in dogs. The terminal half-lives (Ti2) of Compound 1 and Compound 2 ranged from 3.5 to 41 hours, and 6.5 to 34 hours, respectively.

[4] = Pharmacokinetics after single IV bolus dose in mice
Method: as §1, §2

[5] = Pharmacokinetics after single IV bolus dose in monkeys
Method: as §1, §2

[6] = test system: squamous cell carcinoma of the head and neck; settings: recurrent or metastatic squamous cell carcinoma of the head and neck; cited from earlier work
[7] = Rat, single dose IV bolus, mean noncompartmental
[8] = male, Sprague-Dawley, rat, plasma, iv
[9] = female, CD-1, mouse, in vivo, iv
[10] = Monkey, single dose IV bolus, mean noncompartmental
[11] = female, CD-1, mouse, plasma, iv
[12] = male, cynomolgus monkey, plasma, iv

Compound: atezolizumab: the first approved anti-PD-L1 therapy
- response rate (bladder cancer; all patients): 15%
- response rate (bladder cancer; patients with more PD-L1-positive immune cells): 27%

Compound: C[C@H](Nc1cc(Cl)nc2c1cnn2[C@@H]1O[C@H](COP(=O)(O)CP(=O)(O)O)[C@@H](O)[C@H]1O)c1ccc(F)cc1 [Compound 2]
- T1/2 [1, 7]: 9.6 h
- Vd ([1]; male, Sprague-Dawley, rat, in vivo, iv): 0.12 L/kg
- clearance [1, 8]: 0.155 mL/min/kg
- CL [2]: 0.567 mL/min/kg
- volume of distribution at steady state, in words [2]: moderate-to-high
- Vd ([2]; in vivo): 0.63 L/kg
- half-life ([2]; in vivo): 15 h
- clearance (CL), in words [3]: low
- half-life [3]: 6.5 to 34 h
- volume of distribution at steady state, in words [3]: low
- Vd [4, 9]: 0.11 L/kg
- clearance [4, 9]: 0.25 mL/min/kg
- half-life [4, 9]: 6.5 h
- CL [5, 10]: 0.0283 mL/min/kg
- T1/2 [5, 10]: 34 h
- Vd ([5]; male, cynomolgus monkey, in vivo, iv): 0.078 L/kg

Compound: nivolumab: PD-1 blocking antibody
- estimated 1-year survival rate versus standard chemotherapy [6]: more than two-fold higher

- CL [1, 7]: 0.333 mL/min/kg
- T1/2 [1, 7]: 5.3 h
- Vd [1, 8]: 0.12 L/kg
- CL [2]: 0.833 mL/min/kg
- volume of distribution at steady state, in words [2]: moderate-to-high
- Vd ([2]; plasma): 1.3 L/kg
- half-life ([2]; plasma): 21 h
- clearance (CL), in words [3]: low
- half-life [3]: 3.5 to 41 h
- volume of distribution at steady state, in words [3]: low
- CL ([4]; Mouse, single dose IV bolus, mean noncompartmental): 0.417 mL/min/kg
- Vd [4, 11]: 0.12 L/kg
- half-life [4, 11]: 3.5 h
- CL [5, 10]: 0.0417 mL/min/kg
- Vd [5, 12]: 0.097 L/kg
- half-life [5, 12]: 41 h
Compound: C[C@H](Nc1cc(Cl)nc2c1cnn2[C@@H]1O[C@H](COP(=O)(O)CP(=O)(O)O)[C@@H](O)[C@H]1O)c1ccccc1F [Compound 1]
